Where “and” joins values, the source holds several entries; their conditions need not be identical. Equal values may be shown once. Inconclusive results and toxic doses are left out.
Tested on: L1210 leukemia ip in BDF1 mice, survival T/C
Experiment: NCI In Vivo Anticancer Drug Screen. Data for tumor model L1210 Leukemia (intraperitoneal) in B6D2F1 (BDF1) mice
Conditions: endpoint: mean survival time, higher = longer survival
Procedure, shortened: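 Mice bearing the transplanted tumor received compound or vehicle. Survival of the treated group was divided by that of the vehicle-treated control group to give the ratio.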

[1] = dose: 100.0 mg/kg/injection, schedule: Q01DX001 (ip), vehicle: saline
[2] = dose: 200.0 mg/kg/injection, schedule: Q01DX001 (ip), vehicle: saline
[3] = dose: 400.0 mg/kg/injection, schedule: Q01DX001 (ip), vehicle: saline
[4] = dose: 100.0 mg/kg/injection, schedule: Q04DX003 (ip), vehicle: saline with Tween-80
[5] = dose: 200.0 mg/kg/injection, schedule: Q04DX003 (ip), vehicle: saline with Tween-80
[6] = dose: 400.0 mg/kg/injection, schedule: Q04DX003 (ip), vehicle: saline with Tween-80
[7] = dose: 100.0 mg/kg/injection, schedule: Q01DX009 (ip), vehicle: Klucel (hydroxypropylcellulose) (HPC)
[8] = dose: 200.0 mg/kg/injection, schedule: Q01DX009 (ip), vehicle: Klucel (hydroxypropylcellulose) (HPC)
[9] = dose: 400.0 mg/kg/injection, schedule: Q01DX009 (ip), vehicle: Klucel (hydroxypropylcellulose) (HPC)

CS(=O)(=O)c1ccc(Nn2c(N)nn(-c3ccc(S(C)(=O)=O)cc3)c2=N)cc1
T/C (dose: 50.0 mg/kg/injection, schedule: Q01DX009 (ip), vehicle: saline): 93 % of control and 95 % of control and 96 % of control
T/C (dose: 100.0 mg/kg/injection, schedule: Q01DX009 (ip), vehicle: saline): 95 % of control and 86 % of control
T/C (dose: 200.0 mg/kg/injection, schedule: Q01DX009 (ip), vehicle: saline): 97 % of control and 107 % of control and 92 % of control

O=NN(CCCl)C(=O)Nc1ccccc1C(=O)O
T/C (dose: 6.0 mg/kg/injection, schedule: Q01DX001 (ip), vehicle: carboxymethylcellulose (CMC)): 121 % of control
T/C (dose: 9.0 mg/kg/injection, schedule: Q01DX001 (ip), vehicle: carboxymethylcellulose (CMC)): 156 % of control

CCS(=O)(=O)C(CCC(S(=O)(=O)CC)S(=O)(=O)CC)S(=O)(=O)CC
T/C [1]: 110 % of control
T/C [2]: 96 % of control
T/C [3]: 102 % of control

C=CCNC(=O)Oc1cccc(NC(=O)OCC=C)c1
T/C [4]: 96 % of control
T/C [5]: 96 % of control
T/C [6]: 102 % of control

COc1cc2c(cc1OC)C(Cc1ccc(N)cc1)N(C)CC2 (configuration not stated)
T/C (dose: 10.0 mg/kg/injection, schedule: Q01DX001 (ip), vehicle: saline): 87 % of control
T/C (dose: 20.0 mg/kg/injection, schedule: Q01DX001 (ip), vehicle: saline): 91 % of control
T/C (dose: 40.0 mg/kg/injection, schedule: Q01DX001 (ip), vehicle: saline): 94 % of control
T/C (dose: 80.0 mg/kg/injection, schedule: Q01DX001 (ip), vehicle: saline): 98 % of control

O=C(OC1CCC(c2ccccc2)C1)c1cc([N+](=O)[O-])cc([N+](=O)[O-])c1 (configuration not stated)
T/C (dose: 75.0 mg/kg/injection, schedule: Q04DX003 (ip), vehicle: other): 96 % of control
T/C (dose: 150.0 mg/kg/injection, schedule: Q04DX003 (ip), vehicle: other): 92 % of control
T/C (dose: 300.0 mg/kg/injection, schedule: Q04DX003 (ip), vehicle: other): 87 % of control

O=C(Nc1ccccc1C(F)(F)F)Oc1ccc(Cl)cc1Cl
T/C (dose: 100.0 mg/kg/injection, schedule: Q01DX009 (ip), vehicle: saline with Tween-80): 103 % of control
T/C [4]: 94 % of control
T/C (dose: 200.0 mg/kg/injection, schedule: Q01DX009 (ip), vehicle: saline with Tween-80): 99 % of control
T/C [5]: 102 % of control
T/C [6]: 86 % of control

c1ccc(-c2nc[nH]c2-c2ccccc2)cc1
T/C [7]: 96 % of control
T/C (dose: 100.0 mg/kg/injection, schedule: Q04DX003 (ip), vehicle: Klucel (hydroxypropylcellulose) (HPC)): 105 % of control
T/C [8]: 91 % of control
T/C (dose: 200.0 mg/kg/injection, schedule: Q04DX003 (ip), vehicle: Klucel (hydroxypropylcellulose) (HPC)): 100 % of control
T/C [9]: 96 % of control
T/C (dose: 400.0 mg/kg/injection, schedule: Q04DX003 (ip), vehicle: Klucel (hydroxypropylcellulose) (HPC)): 100 % of control

C=CCc1cc(CN2CCOCC2)c(O)c(OC)c1
T/C [7]: 98 % of control
T/C (dose: 100.0 mg/kg/injection, schedule: Q04DX002 (ip), vehicle: Klucel (hydroxypropylcellulose) (HPC)): 101 % of control and 108 % of control
T/C [8]: 97 % of control
T/C (dose: 200.0 mg/kg/injection, schedule: Q04DX002 (ip), vehicle: Klucel (hydroxypropylcellulose) (HPC)): 89 % of control
T/C [9]: 103 % of control
T/C (dose: 400.0 mg/kg/injection, schedule: Q04DX002 (ip), vehicle: Klucel (hydroxypropylcellulose) (HPC)): 107 % of control

CN=C(NC)c1ccc(NC(=O)c2ccc(C(=O)Nc3ccc(C(=NC)NC)cc3)cc2)cc1
T/C (dose: 0.23 mg/kg/injection, schedule: Q01DX Z (ip), vehicle: methylcellulose (MC)): 96 % of control and 124 % of control
T/C (dose: 0.9 mg/kg/injection, schedule: Q01DX Z (ip), vehicle: methylcellulose (MC)): 110 % of control and 177 % of control and 205 % of control
T/C (dose: 1.87 mg/kg/injection, schedule: Q01DX Z (ip), vehicle: methylcellulose (MC)): 150 % of control
T/C (dose: 1.9 mg/kg/injection, schedule: Q01DX Z (ip), vehicle: methylcellulose (MC)): 124 % of control
T/C (dose: 3.75 mg/kg/injection, schedule: Q01DX Z (ip), vehicle: methylcellulose (MC)): 161 % of control
T/C (dose: 7.5 mg/kg/injection, schedule: Q01DX Z (ip), vehicle: methylcellulose (MC)): 160 % of control
T/C (dose: 15.0 mg/kg/injection, schedule: Q01DX Z (ip), vehicle: methylcellulose (MC)): 124 % of control
T/C (dose: 15.0 mg/kg/injection, schedule: Q01DX Z (oral), vehicle: carboxymethylcellulose (CMC)): 111 % of control
T/C (dose: 30.0 mg/kg/injection, schedule: Q01DX Z (ip), vehicle: methylcellulose (MC)): 108 % of control
T/C (dose: 30.0 mg/kg/injection, schedule: Q01DX Z (oral), vehicle: carboxymethylcellulose (CMC)): 102 % of control
T/C (dose: 60.0 mg/kg/injection, schedule: Q01DX Z (oral), vehicle: carboxymethylcellulose (CMC)): 107 % of control
T/C (dose: 120.0 mg/kg/injection, schedule: Q01DX Z (oral), vehicle: carboxymethylcellulose (CMC)): 96 % of control
T/C (dose: 240.0 mg/kg/injection, schedule: Q01DX Z (oral), vehicle: carboxymethylcellulose (CMC)): 115 % of control
T/C (dose: 480.0 mg/kg/injection, schedule: Q01DX Z (oral), vehicle: carboxymethylcellulose (CMC)): 113 % of control

CC(=O)Nc1ccc(S(=O)(=O)C(Cl)c2ccccc2)cc1 (configuration not stated)
T/C [1]: 103 % of control
T/C [2]: 103 % of control
T/C [3]: 98 % of control

c1ccc(C2=NC(c3ccccc3)N3CC23c2ccccc2)cc1 (configuration not stated)
T/C (dose: 100.0 mg/kg/injection, schedule: Q01DX001 (ip), vehicle: Klucel (hydroxypropylcellulose) (HPC)): 97 % of control
T/C (dose: 200.0 mg/kg/injection, schedule: Q01DX001 (ip), vehicle: Klucel (hydroxypropylcellulose) (HPC)): 94 % of control

CCCCCOC(=O)C1OC1(CC)c1ccccc1 (configuration not stated)
T/C (dose: 100.0 mg/kg/injection, schedule: Q04DX002 (ip), vehicle: saline): 97 % of control
T/C (dose: 200.0 mg/kg/injection, schedule: Q04DX002 (ip), vehicle: saline): 101 % of control
T/C (dose: 400.0 mg/kg/injection, schedule: Q04DX002 (ip), vehicle: saline): 120 % of control

Source: PubChem BioAssay AID248 (DTP/NCI, 2004)
